Experimental data taken from publication PMC6825286 (Proceedings of the National Academy of Sciences of the …, 2019).

Biological target: T1, SghR (Agrobacterium tumefaciens, UniProt A0A2I4PGE9)
T1 sequence (A0A2I4PGE9 1-350): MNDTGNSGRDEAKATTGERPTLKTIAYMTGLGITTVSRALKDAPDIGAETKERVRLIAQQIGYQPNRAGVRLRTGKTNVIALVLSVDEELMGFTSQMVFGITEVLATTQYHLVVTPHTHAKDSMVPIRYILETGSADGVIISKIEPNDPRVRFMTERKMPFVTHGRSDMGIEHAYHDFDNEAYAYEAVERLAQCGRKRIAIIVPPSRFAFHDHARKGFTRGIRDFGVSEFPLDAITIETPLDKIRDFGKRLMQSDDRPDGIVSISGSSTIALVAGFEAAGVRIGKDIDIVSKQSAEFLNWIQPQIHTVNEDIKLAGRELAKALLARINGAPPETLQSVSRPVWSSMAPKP
Test: EMSA, dissociation of SghR from biotin-labelled sghA promoter
Type: binding
Conditions: sucrose 50 and 500 µM; inducer that releases the repressor from DNA

## OC[C@H]1O[C@@](CO)(O[C@H]2O[C@H](CO)[C@@H](O)[C@H](O)[C@H]2O)[C@@H](O)[C@@H]1O [sucrose]
  EMSA, dissociation of SghR from biotin-labelled sghA promoter: gel shift analysis demonstrated that sucrose dissociated repressor SghR from the sghA promoter
